# “And” between values parts separate entries of the source, which are not always exact repeats. Equal values may be shown once. Inconclusive results are not listed.
# Test system: nude mice, LX-1 lung xenograft intrarenal, tumor weight T/C
# Test: NCI In Vivo Anticancer Drug Screen. Data for tumor model Human Lung LX-1 Xenograft (intrarenal inoculation) in NU/NU Swiss (nude) mice
# Conditions: endpoint: mean tumor weight change, higher = larger tumour
# Summary of the method: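 In vivo, transplantable tumor; compound vs vehicle arms; tumor size measured; value = T/C.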
# [1] = dose: 75.0 mg/kg/injection, schedule: Q04DX003 (sc), vehicle: saline with Tween-80
# [2] = dose: 150.0 mg/kg/injection, schedule: Q04DX003 (sc), vehicle: saline with Tween-80
# [3] = dose: 300.0 mg/kg/injection, schedule: Q04DX003 (sc), vehicle: Klucel (hydroxypropylcellulose) (HPC)
# [4] = dose: 600.0 mg/kg/injection, schedule: Q04DX003 (sc), vehicle: Klucel (hydroxypropylcellulose) (HPC)
# [5] = dose: 1200.0 mg/kg/injection, schedule: Q04DX003 (sc), vehicle: Klucel (hydroxypropylcellulose) (HPC)
# [6] = dose: 2400.0 mg/kg/injection, schedule: Q04DX003 (sc), vehicle: Klucel (hydroxypropylcellulose) (HPC)
# [7] = dose: 300.0 mg/kg/injection, schedule: Q04DX003 (sc), vehicle: saline with Tween-80
# [8] = dose: 600.0 mg/kg/injection, schedule: Q04DX003 (sc), vehicle: saline with Tween-80
# [9] = dose: 1200.0 mg/kg/injection, schedule: Q04DX003 (sc), vehicle: saline with Tween-80
# [10] = dose: 100.0 mg/kg/injection, schedule: Q04DX003 (sc), vehicle: saline
# [11] = dose: 200.0 mg/kg/injection, schedule: Q04DX003 (sc), vehicle: saline
# [12] = dose: 200.0 mg/kg/injection, schedule: Q04DX003 (sc), vehicle: suspension in saline
smiles,measurement,setting,value
CC(=O)Oc1ccccc1O,T/C,"dose: 150.0 mg/kg/injection, schedule: Q04DX003 (sc), vehicle: saline + Tween-80 + alcohol",105 % of control
same,T/C,"dose: 300.0 mg/kg/injection, schedule: Q04DX003 (sc), vehicle: saline + Tween-80 + alcohol",101 % of control
same,T/C,"dose: 600.0 mg/kg/injection, schedule: Q04DX003 (sc), vehicle: saline + Tween-80 + alcohol",89 % of control
same,T/C,"dose: 1200.0 mg/kg/injection, schedule: Q04DX003 (sc), vehicle: saline + Tween-80 + alcohol",82 % of control
O=[n+]1c2ccccc2n([O-])c2ccccc21.[Cl][Ni][Cl],T/C,"dose: 18.75 mg/kg/injection, schedule: Q04DX003 (sc), vehicle: saline with Tween-80",122 % of control
same,T/C,[1],150 % of control and 163 % of control
same,T/C,[2],226 % of control
[I][Hg][CH2]C1OCCOC1[CH2][Hg][I] (configuration not stated),T/C,"dose: 150.0 mg/kg/injection, schedule: Q04DX003 (sc), vehicle: Klucel (hydroxypropylcellulose) (HPC)",88 % of control
same,T/C,[3],74 % of control
same,T/C,[4],79 % of control
same,T/C,[5],64 % of control
C=C(C)[C@]12CC(C)C34OC(/C=C\C=C\CCCCCCCCC)(O[C@@H]1[C@@H]3[C@@H]1O[C@]1(CO)[C@@H](O)[C@]1(O)C(=O)C(C)=C[C@@H]41)O2 (some centres not stated),T/C,"dose: 3.0 mg/kg/injection, schedule: Q04DX003 (sc), vehicle: distilled water + alcohol",84 % of control
same,T/C,"dose: 6.0 mg/kg/injection, schedule: Q04DX003 (sc), vehicle: distilled water + alcohol",77 % of control
same,T/C,"dose: 12.0 mg/kg/injection, schedule: Q04DX003 (sc), vehicle: distilled water + alcohol",81 % of control
CC(=O)O[C@@H]1[C@@H](O)C2=C3[C@]4(C)[C@@H]1C(C)(C)C(=O)C[C@@H]4[C@]3(O)[C@H](OC(C)=O)[C@@]1(C[C@@H]1C)C2=O,T/C,"dose: 12.5 mg/kg/injection, schedule: Q01DX010 (sc), vehicle: saline with Tween-80",104 % of control
same,T/C,"dose: 25.0 mg/kg/injection, schedule: Q01DX010 (sc), vehicle: saline with Tween-80",58 % of control
same,T/C,"dose: 50.0 mg/kg/injection, schedule: Q01DX010 (sc), vehicle: saline with Tween-80",207 % of control
CCc1c(CC(=O)O)c2cc(C)ccc2n1Cc1ccc(Cl)cc1,T/C,[3],123 % of control
same,T/C,[4],82 % of control
same,T/C,[5],92 % of control
same,T/C,[6],50 % of control
Nc1nc(-c2ccccc2)c(Br)c(=O)[nH]1,T/C,[7],77 % of control
same,T/C,[8],69 % of control
same,T/C,[9],54 % of control
same,T/C,"dose: 2400.0 mg/kg/injection, schedule: Q04DX003 (sc), vehicle: saline with Tween-80",66 % of control
CCc1ccc(C2=C(O)C(=O)C(c3ccccc3)=C(O)C2=O)cc1,T/C,[3],104 % of control
same,T/C,[4],49 % of control
same,T/C,[5],36 % of control
CC(=O)OC(C)C1C2=C(C(=O)CC1(C)O)C(=O)c1c(ccc(-c3ccc4c(c3O)C(=O)C3=C(C4=O)C(C(C)OC(C)=O)C(C)(O)CC3=O)c1O)C2=O (configuration not stated),T/C,"dose: 3.75 mg/kg/injection, schedule: Q04DX003 (sc), vehicle: saline with Tween-80",45 % of control
same,T/C,"dose: 7.5 mg/kg/injection, schedule: Q04DX003 (sc), vehicle: saline with Tween-80",86 % of control
same,T/C,"dose: 15.0 mg/kg/injection, schedule: Q04DX003 (sc), vehicle: saline with Tween-80",87 % of control
same,T/C,"dose: 30.0 mg/kg/injection, schedule: Q04DX003 (sc), vehicle: saline with Tween-80",62 % of control and 78 % of control
CC(C)CC(NC(=O)CF)C(=O)O (configuration not stated),T/C,"dose: 5.0 mg/kg/injection, schedule: Q04DX003 (sc), vehicle: saline",104 % of control
same,T/C,"dose: 10.0 mg/kg/injection, schedule: Q04DX003 (sc), vehicle: saline",111 % of control
same,T/C,"dose: 20.0 mg/kg/injection, schedule: Q04DX003 (sc), vehicle: saline",70 % of control
COC1C(C)OC(OC2CC(C)(O)Cc3cc4c(c(O)c32)C(=O)c2c(O)cc3c(c2C4=O)OC2OC3(C)C(O)C(N(C)C)C2O)C(OC)C1(C)OC (configuration not stated),T/C,"dose: 5.0 mg/kg/injection, schedule: Q04DX003 (sc), vehicle: Klucel (hydroxypropylcellulose) (HPC)",118 % of control
same,T/C,"dose: 20.0 mg/kg/injection, schedule: Q04DX003 (sc), vehicle: Klucel (hydroxypropylcellulose) (HPC)",60 % of control
same,T/C,"dose: 40.0 mg/kg/injection, schedule: Q04DX003 (sc), vehicle: Klucel (hydroxypropylcellulose) (HPC)",98 % of control
O=[N+]([O-])c1ccc(Sc2ccncn2)c([N+](=O)[O-])c1,T/C,[7],104 % of control
same,T/C,[8],105 % of control
same,T/C,[9],98 % of control
O=C(O)C1CSCN1 (configuration not stated),T/C,"dose: 50.0 mg/kg/injection, schedule: Q01DX010 (sc), vehicle: water",86 % of control
same,T/C,"dose: 100.0 mg/kg/injection, schedule: Q01DX010 (sc), vehicle: water",68 % of control
C=CCNc1nc2c(s1)CCc1cc(OC)c(OC)cc1-2,T/C,[2],89 % of control
CC(=O)NCCCCCCNC(C)=O,T/C,"dose: 200.0 mg/kg/injection, schedule: Q01DX010 (sc), vehicle: saline",106 % of control
same,T/C,"dose: 400.0 mg/kg/injection, schedule: Q01DX010 (sc), vehicle: saline",45 % of control
same,T/C,"dose: 800.0 mg/kg/injection, schedule: Q01DX010 (sc), vehicle: saline",105 % of control and 114 % of control
same,T/C,"dose: 3200.0 mg/kg/injection, schedule: Q01DX010 (sc), vehicle: saline",96 % of control
CCC(C(=O)O)C(=O)O.[NH2-].[NH2-].[Pt+2],T/C,"dose: 37.5 mg/kg/injection, schedule: Q04DX003 (sc), vehicle: saline",110 % of control
same,T/C,"dose: 75.0 mg/kg/injection, schedule: Q04DX003 (sc), vehicle: suspension in saline",54 % of control
same,T/C,[10],92 % of control
same,T/C,"dose: 100.0 mg/kg/injection, schedule: Q04DX003 (sc), vehicle: suspension in saline",46 % of control
same,T/C,"dose: 150.0 mg/kg/injection, schedule: Q04DX003 (sc), vehicle: suspension in saline",40 % of control
same,T/C,[11],76 % of control
same,T/C,[12],27 % of control
CCc1ncnc2cc(OCC3CO3)c(OC)cc12 (configuration not stated),T/C,"dose: 25.0 mg/kg/injection, schedule: Q04DX003 (sc), vehicle: suspension in saline",53 % of control
same,T/C,"dose: 50.0 mg/kg/injection, schedule: Q04DX003 (sc), vehicle: suspension in saline",64 % of control
same,T/C,[12],24 % of control
Cc1nnc2ncccn12,T/C,[10],112 % of control
same,T/C,[11],107 % of control
Nc1ncnc2c1ncn2C1OC(CO)C(O)C1O (configuration not stated),T/C,"dose: 25.0 mg/kg/injection, schedule: Q01DX010 (sc), vehicle: saline",156 % of control
same,T/C,"dose: 50.0 mg/kg/injection, schedule: Q01DX010 (sc), vehicle: saline",97 % of control
same,T/C,[11],102 % of control
same,T/C,"dose: 400.0 mg/kg/injection, schedule: Q04DX003 (sc), vehicle: saline",20 % of control
same,T/C,"dose: 800.0 mg/kg/injection, schedule: Q04DX003 (sc), vehicle: saline",117 % of control
same,T/C,"dose: 1600.0 mg/kg/injection, schedule: Q04DX003 (sc), vehicle: saline",70 % of control
OCC1OC(n2cnc3c(NO)ncnc32)C(O)C1O (configuration not stated),T/C,[3],105 % of control
same,T/C,[4],102 % of control
same,T/C,[5],86 % of control
same,T/C,[6],68 % of control
OC(CBr)C(O)C(O)C(O)CBr (configuration not stated),T/C,"dose: 15.0 mg/kg/injection, schedule: Q01DX010 (sc), vehicle: Klucel (hydroxypropylcellulose) (HPC)",112 % of control
same,T/C,"dose: 60.0 mg/kg/injection, schedule: Q01DX010 (sc), vehicle: Klucel (hydroxypropylcellulose) (HPC)",57 % of control
same,T/C,"dose: 200.0 mg/kg/injection, schedule: Q01DX010 (sc), vehicle: Klucel (hydroxypropylcellulose) (HPC)",89 % of control
same,T/C,"dose: 400.0 mg/kg/injection, schedule: Q01DX010 (sc), vehicle: Klucel (hydroxypropylcellulose) (HPC)",96 % of control
same,T/C,"dose: 800.0 mg/kg/injection, schedule: Q01DX010 (sc), vehicle: Klucel (hydroxypropylcellulose) (HPC)",115 % of control
O=C1c2ccccc2C(=O)c2c3c(cc(NCCNCCO)c21)N(CCO)CCN3,T/C,"dose: 200.0 mg/kg/injection, schedule: Q04DX003 (sc), vehicle: DMSO",122 % of control
same,T/C,"dose: 400.0 mg/kg/injection, schedule: Q04DX003 (sc), vehicle: DMSO",86 % of control
same,T/C,"dose: 800.0 mg/kg/injection, schedule: Q04DX003 (sc), vehicle: DMSO",83 % of control
CC1(C)OC2C(COC(=O)c3ccc([N+](=O)[O-])cc3)OC(NC(=O)N(CCCl)N=O)C2O1 (configuration not stated),T/C,[1],84 % of control
same,T/C,[2],43 % of control
same,T/C,[7],41 % of control
same,T/C,[8],27 % of control
